Assay results: ChEMBL document CHEMBL4007403, “Identification of Triazolothiadiazoles as Potent Inhibitors of the dCTP Pyrophosphatase 1” (J Med Chem, 2017)
Converted amounts (≈) assume the structure as drawn.

What was measured:
[1] = Kinetic solubility of the compound; format: physicochemical; settings: read-out: Kinetic_solubility
[2] = Hepatic extraction ratio in mouse liver microsomes up to 100 uM preincubated for 10 mins followed by NADPH addition by UPLC-MS analysis; format: ADME, microsome; settings: read-out: ERH
[3] = Stability of the compound in DMSO measured after several months by HPLC-MS analysis; format: physicochemical
[4] = Hepatic extraction ratio in human liver microsomes up to 100 uM preincubated for 10 mins followed by NADPH addition by UPLC-MS analysis; format: ADME, microsome; settings: read-out: ERH
[5] = Stability of the compound in biochemical assay buffer under mildly acidic mobile phase conditions by HPLC-MS analysis; format: physicochemical
[6] = target: T1, dCTP pyrophosphatase 1 (Homo sapiens) (UniProt Q9H773)
T1 sequence (whole entry): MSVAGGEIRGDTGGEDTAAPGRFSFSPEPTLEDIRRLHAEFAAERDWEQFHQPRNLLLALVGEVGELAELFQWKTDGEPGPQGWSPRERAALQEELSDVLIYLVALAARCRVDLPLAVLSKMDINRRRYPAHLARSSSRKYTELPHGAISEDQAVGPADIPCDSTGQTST
Description: Binding affinity to recombinant human N-terminal His-tagged dCTPase 1 expressed in Escherichia coli BL21(DE3)pLysS assessed as change in melting temperature at 33 uM by Sypro Orange dye based DSF assay

[7] = Half life in human liver microsomes up to 100 uM preincubated for 10 mins followed by NADPH addition by UPLC-MS analysis; format: ADME, microsome
[8] = Half life in mouse liver microsomes up to 100 uM preincubated for 10 mins followed by NADPH addition by UPLC-MS analysis; format: ADME, microsome
[9] = target: T2, dCTP pyrophosphatase 1 (Homo sapiens, UniProt Q9H773); experiment: Inhibition of recombinant human N-terminal His-tagged dCTPase 1 expressed in Escherichia coli BL21(DE3)pLysS using dCTP as substrate after 1 hr by malachite green reagent based assay
T2 sequence (Q9H773 whole entry): T1 sequence (whole entry)

[10] = Intracellular bioavailability in human HL60 cells assessed as ratio of fraction unbound in cells to intracellular drug accumulation at 0.5 uM after 45 mins by LC-MS/MS analysis; format: ADME; settings: hl-60, 0.75 h
[11] = Stability of the compound in biochemical assay buffer under basic mobile phase conditions by HPLC-MS analysis; format: physicochemical
[12] = Metabolic stability in human plasma after 4 hrs; format: ADME, cell-free; settings: read-out: Stability
[13] = Fraction unbound in human plasma; format: ADME, cell-free
[14] = test system: HL-60; experiment: Cytotoxicity against human HL60 cells assessed as decrease in cell viability at 1 to 5 uM after 72 hrs by resazurin assay; format: cell-based; settings: hl-60, 72 h
[15] = Inhibition of human His-tagged dUTPase expressed in bacterial expression system after 1 hr by malachite green reagent based assay
[16] = target: T3, Nucleotide triphosphate diphosphatase NUDT15 (Homo sapiens, UniProt Q9NV35); experiment: Inhibition of human His-tagged NUDT15 expressed in bacterial expression system after 1 hr by malachite green reagent based assay
T3 sequence (Q9NV35 whole entry): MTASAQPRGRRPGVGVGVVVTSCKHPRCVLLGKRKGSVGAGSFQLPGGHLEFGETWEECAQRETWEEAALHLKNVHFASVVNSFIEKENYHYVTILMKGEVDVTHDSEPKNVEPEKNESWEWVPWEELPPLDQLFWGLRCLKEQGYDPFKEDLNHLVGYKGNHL

[17] = target: T4, Uridine diphosphate glucose pyrophosphatase NUDT14 (Homo sapiens, UniProt O95848); experiment: Inhibition of human His-tagged NUDT14 expressed in bacterial expression system after 1 hr by malachite green reagent based assay
T4 sequence (O95848 whole entry): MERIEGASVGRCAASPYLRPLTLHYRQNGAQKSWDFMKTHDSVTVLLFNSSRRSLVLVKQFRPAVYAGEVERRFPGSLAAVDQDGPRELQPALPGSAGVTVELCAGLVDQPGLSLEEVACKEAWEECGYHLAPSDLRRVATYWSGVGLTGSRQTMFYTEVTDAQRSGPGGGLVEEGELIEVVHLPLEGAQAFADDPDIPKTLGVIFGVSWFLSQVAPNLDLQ

[18] = target: Oxidized purine nucleoside triphosphate hydrolase (Homo sapiens, UniProt P36639); experiment: Inhibition of recombinant human MTH1 using dGTP as substrate after 1 hr by malachite green reagent based assay
[19] = target: ADP-sugar pyrophosphatase (Homo sapiens, UniProt Q9UKK9); experiment: Inhibition of human His-tagged NUDT5 expressed in bacterial expression system in presence of ADP after 1 hr by malachite green reagent based assay
[20] = target: Bis(5'-nucleosyl)-tetraphosphatase [asymmetrical] (Homo sapiens, UniProt P50583); experiment: Inhibition of NUDT2 (unknown origin) by malachite green reagent based assay
Chain of Bis(5'-nucleosyl)-tetraphosphatase [asymmetrical] (P50583 whole entry): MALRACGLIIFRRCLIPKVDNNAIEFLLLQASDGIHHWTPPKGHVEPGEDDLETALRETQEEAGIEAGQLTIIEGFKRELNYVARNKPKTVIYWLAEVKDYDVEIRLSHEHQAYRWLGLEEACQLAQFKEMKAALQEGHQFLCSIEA

[21] = target: T5, ADP-ribose pyrophosphatase, mitochondrial (Homo sapiens, UniProt Q9BW91); experiment: Inhibition of NUDT9 (unknown origin) by malachite green reagent based assay
T5 sequence (Q9BW91 whole entry): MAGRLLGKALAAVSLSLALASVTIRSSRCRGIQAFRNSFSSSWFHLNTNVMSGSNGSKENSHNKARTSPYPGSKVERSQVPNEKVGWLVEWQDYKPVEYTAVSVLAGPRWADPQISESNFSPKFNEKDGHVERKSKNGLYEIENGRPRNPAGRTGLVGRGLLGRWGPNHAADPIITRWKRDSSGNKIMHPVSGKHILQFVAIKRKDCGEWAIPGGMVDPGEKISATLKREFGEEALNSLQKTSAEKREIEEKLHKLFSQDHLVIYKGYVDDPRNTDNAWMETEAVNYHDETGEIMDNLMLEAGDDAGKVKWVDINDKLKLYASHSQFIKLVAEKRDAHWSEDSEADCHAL

[22] = target: Inosine triphosphate pyrophosphatase (Homo sapiens, UniProt Q9BY32); experiment: Inhibition of human His-tagged ITPase expressed in bacterial expression system after 1 hr by malachite green reagent based assay

Structure (SMILES)	solubility kinetic [1] [µM]	hepatic extraction ratio [2]	Stability [3]	hepatic extraction ratio [4]	Stability [5]	ΔTm [6] [°C]	half-life [7] [min]	half-life [8] [min]	IC50 [9] [µM]	Ratio [10]	Stability [11]	Activity [14]	further results
Cc1cc(-c2nn3c(-c4cccs4)nnc3s2)n[nH]1	58 (≈ 16.7 µg/mL)	0.97	Stable	0.79	Stable	0.9	14	2	> 10	0.78	Stable	–	–
COc1ccc(-c2nn3c(-c4cccs4)nnc3s2)cc1OC	3 (≈ 1.03 µg/mL)	–	Stable	–	Stable	–	4	1	–	–	Stable	Non-Toxic	IC50 [15]: > 100 µM; IC50 [16]: > 100 µM; IC50 [17]: > 100 µM; IC50 [18]: > 100 µM; IC50 [19]: > 100 µM; IC50 [20]: > 100 µM; IC50 [21]: > 100 µM; IC50 [22]: > 100 µM
COc1ccc(-c2nn3c(-c4ccco4)nnc3s2)cc1OC	19 (≈ 6.24 µg/mL)	0.99	Stable	0.91	Stable	–	5	1	0.019	–	Stable	Non-Toxic	–

Second part, led by results:

solubility kinetic [1] [µM]	hepatic extraction ratio [2]	Stability [3]	hepatic extraction ratio [4]	Stability [5]	ΔTm [6] [°C]	half-life [7] [min]	half-life [8] [min]	IC50 [9] [µM]	Ratio [10]	Stability [11]	Structure (SMILES)	Activity [14]	further results
27 (≈ 9.16 µg/mL)	0.95	Stable	0.67	Stable	9.4	21	3	0.079 to 0.094	0.15	Stable	COc1ccc(-c2nn3c(-c4ccccn4)nnc3s2)cc1OC	Non-Toxic	remaining at 4 h [12]: 100%; fraction unbound [13]: 0.063
25 (≈ 8.08 µg/mL)	0.99	Stable	0.96	Stable	3.1	3	1	0.19	3.5	Stable	c1ccc(-c2nnc3sc(-c4ccc5c(c4)OCO5)nn23)nc1	–	–
